Some test systems named below: TK-10; UO-31; A549; U-251; NCI-H522; OVCAR-3; CCRF-CEM; Malme-3M; ACHN; KM12; HL-60; SK-MEL-2; SR; NCI-H23; IGROV-1; DMS-273; RPMI-8226; A498; HCC 2998.
What all share (assay): inhibition of tumour cell growth, NCI panel, 48 h

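Five concentrations, 48 hours, 96-well plates. The concentration for 50% growth inhibition is given as GI50.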 Calls of active or inactive are those of the source. No stated cut-off is given here; in the data, active = GI50 up to about 1.1 µM and inactive = higher. A value given as a limit tells only on which side of the number the result lay.

For `CC(C)C1=CC(=O)C(C)(C2=NC(C)(C)CO2)c2ccccc21` (centres undefined), the GI50 in the assay with TK-10 is > 100 µM (inactive); in the assay on UO-31, 61.2 µM (inactive); in the assay on A549, > 100 µM (inactive); in the assay on U-251, > 100 µM (inactive); in the assay on NCI-H522, 32.9 µM (inactive); in the assay with OVCAR-3, > 100 µM (inactive). For the same molecule, the GI50 in the assay on CCRF-CEM, in the assay with Malme-3M, with ACHN, in the assay on KM12, in the assay on HL-60 and in the assay on SK-MEL-2 was > 100 µM (inactive) in each case. In addition, the GI50 in the assay on SR is 60.3 µM (inactive); in the assay on NCI-H23 it was > 100 µM (inactive); in the assay with IGROV-1 it was > 100 µM (inactive); in the assay with DMS-273 it was > 100 µM (inactive); in the assay on RPMI-8226 it was 78.2 µM (inactive).

`COC(=O)C(Br)C1CCc2ccccc21` (centres undefined): the GI50 in the assay on TK-10 is > 100 µM (inactive); in the assay with UO-31 it was > 100 µM (inactive); in the assay on A549, > 100 µM (inactive); in the assay with U-251, > 100 µM (inactive); with OVCAR-3, 63.1 µM (inactive); with CCRF-CEM, 48.1 µM (inactive). Besides, the GI50 in the assay with Malme-3M is > 100 µM (inactive); in the assay on ACHN, > 100 µM (inactive); in the assay on A498, > 100 µM (inactive); in the assay with HCC 2998, > 100 µM (inactive); with HL-60 it was 26.5 µM (inactive); with SR it was 42.8 µM (inactive). The GI50 is > 100 µM (inactive) in the assay on NCI-H23, > 100 µM (inactive) in the assay with IGROV-1, > 100 µM (inactive) in the assay on DMS-273 and 71.9 µM (inactive) in the assay on RPMI-8226.

On to `COC(=O)CC(NC(=O)OCc1ccccc1)C(C(=O)OCc1ccccc1)C(C)(OC)OC` (centres undefined), for which the GI50 with TK-10 was 39.2 µM (inactive); with UO-31 it was 14.6 µM (inactive); in the assay on A549, 17.3 µM (inactive); with U-251, 27 µM (inactive); with OVCAR-3, 21.3 µM (inactive); with CCRF-CEM, 13 µM (inactive). Also, the GI50 was 28 µM (inactive) in the assay on Malme-3M; 26.4 µM (inactive) in the assay on ACHN; 3.95 µM (inactive) in the assay with A498; 38 µM (inactive) in the assay on HCC 2998; 15.1 µM (inactive) in the assay with HL-60; 17.6 µM (inactive) in the assay on SK-MEL-2. Also, the GI50 in the assay on SR was 8.81 µM (inactive); in the assay with NCI-H23, 17.4 µM (inactive); in the assay on IGROV-1, 19.6 µM (inactive); in the assay with DMS-273, 33.3 µM (inactive); in the assay on RPMI-8226, 10 µM (inactive).

With `N#CC1(C#N)NC(c2ccsc2)C(C#N)(C#N)NC1c1ccsc1` (centres undefined), the GI50 in the assay with TK-10, in the assay on UO-31, in the assay on A549, in the assay on U-251, in the assay on NCI-H522 and in the assay with OVCAR-3 was > 100 µM (inactive) each time. Further, the GI50 in the assay with CCRF-CEM is 80.2 µM (inactive); in the assay on Malme-3M it was > 100 µM (inactive); in the assay with ACHN it was > 100 µM (inactive); in the assay on A498, > 100 µM (inactive); in the assay on HCC 2998 it was > 100 µM (inactive); in the assay on KM12 it was > 100 µM (inactive). Further, the GI50 in the assay on HL-60, in the assay on SK-MEL-2, in the assay with SR, in the assay with NCI-H23, with IGROV-1 and in the assay with RPMI-8226 was > 100 µM (inactive) in each case.

Regarding `COC(=O)CC1C=CC(C)(OC)OO1` (centres undefined), the GI50 with TK-10 is > 100 µM (inactive); with UO-31, > 100 µM (inactive); with A549, 26 µM (inactive); with U-251, > 100 µM (inactive); in the assay with NCI-H522 it was 16.9 µM (inactive); with OVCAR-3 it was 87.7 µM (inactive). The GI50 with CCRF-CEM was 15.7 µM (inactive); with Malme-3M, 78.7 µM (inactive); in the assay with ACHN, 94.4 µM (inactive); in the assay with A498, > 100 µM (inactive); in the assay with HCC 2998, 59.7 µM (inactive); with KM12, > 100 µM (inactive). The GI50 with HL-60 was 21 µM (inactive); in the assay with SK-MEL-2, > 100 µM (inactive); in the assay with SR it was 58.5 µM (inactive); in the assay with NCI-H23, > 100 µM (inactive); in the assay with IGROV-1 it was > 100 µM (inactive); in the assay on RPMI-8226, 56.2 µM (inactive).

Turning to `O=C(NCCCCNCCCNC(=O)c1cc(-c2ccccc2)nc2ccccc12)c1cc(-c2ccccc2)nc2ccccc12`, the GI50 was 1.59 µM (inactive) in the assay on TK-10; 1.7 µM (inactive) in the assay on UO-31; 1.65 µM (inactive) in the assay on A549; 1.91 µM (inactive) in the assay with U-251; 1.7 µM (inactive) with NCI-H522; 1.55 µM (inactive) in the assay with OVCAR-3. Further, the GI50 with CCRF-CEM was 1.62 µM (inactive); in the assay on Malme-3M, 1.78 µM (inactive); with ACHN it was 1.9 µM (inactive); in the assay with A498 it was 2.08 µM (inactive); in the assay with HCC 2998, 1.64 µM (inactive); in the assay with KM12, 1.7 µM (inactive). The GI50 is 1.71 µM (inactive) in the assay on HL-60; 1.91 µM (inactive) in the assay on SK-MEL-2; 2.35 µM (inactive) in the assay on SR; 1.98 µM (inactive) in the assay with NCI-H23; 1.55 µM (inactive) in the assay on IGROV-1; 2.5 µM (inactive) in the assay with RPMI-8226.

`FC(F)(F)C1(c2ccccc2)SCc2nc3ccccc3n21` (centres undefined): the GI50 in the assay with TK-10 was > 100 µM (inactive); in the assay with UO-31, 55.5 µM (inactive); in the assay on A549, > 100 µM (inactive); in the assay on U-251, > 100 µM (inactive); with NCI-H522 it was 55.6 µM (inactive); with OVCAR-3, > 100 µM (inactive). Further, the GI50 with CCRF-CEM was 88.1 µM (inactive); with Malme-3M, > 100 µM (inactive); in the assay with ACHN, > 100 µM (inactive); in the assay on A498 it was > 100 µM (inactive); in the assay on HCC 2998, > 100 µM (inactive); with KM12 it was > 100 µM (inactive). In addition, the GI50 with HL-60 was 24.2 µM (inactive); in the assay on SK-MEL-2 it was > 100 µM (inactive); with SR, 35.2 µM (inactive); in the assay on NCI-H23, 71.9 µM (inactive); in the assay on IGROV-1 it was > 100 µM (inactive); with RPMI-8226, 70.5 µM (inactive).

Take `Cc1nn(C(=O)c2ccccc2O)c2c1C(c1ccc([N+](=O)[O-])cc1)SC(=N)N2` (centres undefined): the GI50 was > 4.5 µM (inactive) with TK-10; 4.49 µM (inactive) in the assay with UO-31; 1.47 µM (inactive) in the assay on A549; 2.9 µM (inactive) in the assay with U-251; 5.6 µM (inactive) in the assay with NCI-H522; 4.05 µM (inactive) with OVCAR-3. Moreover, the GI50 was 3.32 µM (inactive) in the assay with CCRF-CEM; 4.42 µM (inactive) with Malme-3M; 1.17 µM (inactive) in the assay on ACHN; 2.78 µM (inactive) in the assay on A498; > 10 µM (inactive) in the assay on HCC 2998; 5.36 µM (inactive) in the assay on KM12. Besides, the GI50 is 4.27 µM (inactive) with HL-60; > 5.46 µM (inactive) in the assay with SK-MEL-2; 4.83 µM (inactive) with SR; 2.79 µM (inactive) with NCI-H23; 1.88 µM (inactive) in the assay on IGROV-1; > 7.03 µM (inactive) in the assay on RPMI-8226.

In the case of `FC1(F)ON2CCc3ccccc3C2[C@H]1c1ccccc1` (some centres undefined), the GI50 with TK-10 was > 10 µM (inactive); with UO-31, > 100 µM (inactive); in the assay with A549, > 10 µM (inactive); in the assay on U-251, 74 µM (inactive); with NCI-H522, > 10 µM (inactive); in the assay with OVCAR-3 it was 21 µM (inactive). The GI50 in the assay with CCRF-CEM was > 100 µM (inactive); in the assay with Malme-3M it was 2.22 µM (inactive); with ACHN, > 10 µM (inactive); with A498 it was > 10 µM (inactive); in the assay on HCC 2998 it was > 10 µM (inactive); with KM12 it was > 10 µM (inactive). In addition, the GI50 with HL-60, in the assay with SK-MEL-2, with SR, in the assay with NCI-H23, with IGROV-1 and in the assay with RPMI-8226 was > 10 µM (inactive) in each case.

`CC1NCCC(CC(=O)O)C1CC(=O)O` (centres undefined): the GI50 in the assay on TK-10, in the assay with UO-31, with A549, in the assay with U-251, in the assay on NCI-H522 and with OVCAR-3 was > 100 µM (inactive) throughout. In addition, the GI50 in the assay with CCRF-CEM, in the assay with Malme-3M, in the assay with ACHN, in the assay with A498, in the assay on HCC 2998 and in the assay with KM12 was > 100 µM (inactive) each time. In addition, the GI50 with HL-60, in the assay on SK-MEL-2, with SR, in the assay with NCI-H23, in the assay with IGROV-1 and in the assay with RPMI-8226 was > 100 µM (inactive) in each case.

For the molecule `C1=C\CCCCN2C[C@H]3CCCC/C=C\CCCCN4CC[C@@H]([C@H](CCCCCC/1)C4)[C@H](C3)C2`, the GI50 in the assay with TK-10 was 2.28 µM (inactive); in the assay on UO-31 it was 1.66 µM (inactive); with A549 it was 2.09 µM (inactive); with U-251 it was 2.2 µM (inactive); in the assay on NCI-H522, 1.69 µM (inactive); in the assay on OVCAR-3, 1.8 µM (inactive). Further, the GI50 in the assay on CCRF-CEM is 2.58 µM (inactive); in the assay on Malme-3M, 1.85 µM (inactive); in the assay with ACHN, 2.07 µM (inactive); with A498, 6.65 µM (inactive); in the assay on HCC 2998, 0.51 µM (active); in the assay on KM12, 1.82 µM (inactive). Also, the GI50 in the assay with HL-60 is 2.31 µM (inactive); in the assay on SK-MEL-2, 1.88 µM (inactive); in the assay on SR it was 2.4 µM (inactive); in the assay on NCI-H23 it was 6.24 µM (inactive); with IGROV-1, 3.37 µM (inactive); in the assay with RPMI-8226, 1.57 µM (inactive).

Source of the values: ChEMBL document CHEMBL1201862, “PubChem BioAssay data set” (2004).
